From ChEMBL document CHEMBL3045684, “Compatibility of traditional and novel acaricides with bumblebees (Bombus terrestris): a first laboratory assessment of toxicity and sublethal effects” (Pest Manag Sci, 2010)
Activity calls are given as the source filed them. No cut-off for these calls is given here.

Tests used:
Bombus terrestris [1] = experiment: Toxicity against worker Bombus terrestris (bumblebee) assessed as mortality at 200 mg a.i./l, po administered through sugar water for 11 weeks measured everyday for 3 days followed by once a week for 11 weeks; format: functional
Bombus terrestris [2] = experiment: Contact toxicity against Bombus terrestris (bumblebee) assessed per bee; format: functional
Bombus terrestris [3] = experiment: Toxicity against worker Bombus terrestris (bumblebee) assessed as mortality at 200 mg a.i./l, po administered through pollen for 11 weeks measured everyday for 3 days followed by once a week for 11 weeks; format: functional
Apis mellifera = experiment: Contact toxicity against Apis mellifera (honey bee) assessed per bee; format: functional
Bombus terrestris [4] = experiment: Contact toxicity against worker Bombus terrestris (bumblebee) assessed as reduction in reproduction at 200 mg a.i./l applied on the dorsal thorax for 11 weeks measured once a week for 11 weeks relative to control; format: functional, organism-based
Bombus terrestris [5] = experiment: Contact toxicity against worker Bombus terrestris (bumblebee) assessed as mortality at 200 mg a.i./l applied on the dorsal thorax for 11 weeks measured everyday for 3 days followed by once a week for 11 weeks; format: functional
Bombus terrestris [6] = experiment: Toxicity against worker Bombus terrestris (bumblebee) assessed as reduction in reproduction at 200 mg a.i./l, po administered through pollen for 11 weeks measured once a week for 11 weeks; format: functional; design: scale not given: the % may be the effect or the level left
Bombus terrestris [7] = experiment: Contact toxicity against worker Bombus terrestris (bumblebee) assessed as reduction in reproduction at 10 mg a.i./l applied on the dorsal thorax for 11 weeks measured once a week for 11 weeks relative to control; format: functional, organism-based
Bombus terrestris [8] = experiment: Toxicity against worker Bombus terrestris (bumblebee) assessed as mortality at 10 mg a.i./l, po administered through pollen for 11 weeks measured everyday for 3 days followed by once a week for 11 weeks; format: functional, organism-based
Bombus terrestris [9] = experiment: Contact toxicity against worker Bombus terrestris (bumblebee) assessed as mortality at 10 mg a.i./l applied on the dorsal thorax for 11 weeks measured everyday for 3 days followed by once a week for 11 weeks; format: functional
Bombus terrestris [10] = experiment: Toxicity against worker Bombus terrestris (bumblebee) assessed as mortality at 10 mg a.i./l, po administered through sugar water for 11 weeks measured everyday for 3 days followed by once a week for 11 weeks; format: functional
Bombus terrestris [11] = experiment: Contact toxicity against worker Bombus terrestris (bumblebee) assessed as reduction in reproduction at 75 mg a.i./l applied on the dorsal thorax for 11 weeks measured once a week for 11 weeks relative to control; format: functional, organism-based
Bombus terrestris [12] = experiment: Toxicity against worker Bombus terrestris (bumblebee) assessed as reduction in reproduction at 75 mg a.i./l, po administered through sugar water for 11 weeks measured once a week for 11 weeks relative to control; format: functional, organism-based
Bombus terrestris [13] = experiment: Toxicity against worker Bombus terrestris (bumblebee) assessed as mortality at 75 mg a.i./l, po administered through pollen for 11 weeks measured everyday for 3 days followed by once a week for 11 weeks; format: functional
Bombus terrestris [14] = experiment: Toxicity against worker Bombus terrestris (bumblebee) assessed as reduction in reproduction at 75 mg a.i./l, po administered through pollen for 11 weeks measured once a week for 11 weeks; format: functional, organism-based
Bombus terrestris [15] = experiment: Contact toxicity against worker Bombus terrestris (bumblebee) assessed as mortality at 75 mg a.i./l applied on the dorsal thorax measured up to 1 week; format: functional, organism-based
Bombus terrestris [16] = experiment: Toxicity against worker Bombus terrestris (bumblebee) assessed as mortality at 75 mg a.i./l, po administered through sugar water for 11 weeks measured everyday for 3 days followed by once a week for 11 weeks; format: functional
Bombus terrestris [17] = experiment: Contact toxicity against worker Bombus terrestris (bumblebee) assessed as mortality at 75 mg a.i./l applied on the dorsal thorax for 11 weeks measured everyday for 3 days followed by once a week for 11 weeks; format: functional
Bombus terrestris [18] = experiment: Toxicity against worker Bombus terrestris (bumblebee) assessed as mortality at 75 mg a.i./l, po administered through sugar water measured after 9 to 11 weeks; format: functional, organism-based
Bombus terrestris [19] = experiment: Toxicity against worker Bombus terrestris (bumblebee) assessed as reduction in reproduction at 96 mg a.i./l, po administered through sugar water for 11 weeks measured once a week for 11 weeks relative to control; format: functional, organism-based
Bombus terrestris [20] = experiment: Toxicity against worker Bombus terrestris (bumblebee) assessed as mortality at 96 mg a.i./l, po administered through sugar water for 11 weeks measured everyday for 3 days followed by once a week for 11 weeks; format: functional
Bombus terrestris [21] = experiment: Contact toxicity against worker Bombus terrestris (bumblebee) assessed as reduction in reproduction at 96 mg a.i./l applied on the dorsal thorax for 11 weeks measured once a week for 11 weeks relative to control; format: functional, organism-based
Bombus terrestris [22] = experiment: Toxicity against worker Bombus terrestris (bumblebee) assessed as reduction in reproduction at 96 mg a.i./l, po administered through pollen for 11 weeks measured once a week for 11 weeks; format: functional, organism-based
Bombus terrestris [23] = experiment: Toxicity against worker Bombus terrestris (bumblebee) assessed as mortality at 96 mg a.i./l, po administered through pollen for 11 weeks measured everyday for 3 days followed by once a week for 11 weeks; format: functional, organism-based
Bombus terrestris [24] = experiment: Contact toxicity against worker Bombus terrestris (bumblebee) assessed as mortality at 96 mg a.i./l applied on the dorsal thorax for 11 weeks measured everyday for 3 days followed by once a week for 11 weeks; format: functional
Bombus terrestris [25] = experiment: Contact toxicity against worker Bombus terrestris (bumblebee) assessed as mortality at 0.8 mg a.i./l applied on the dorsal thorax for 11 weeks measured everyday for 3 days followed by once a week for 11 weeks; format: functional
Bombus terrestris [26] = experiment: Contact toxicity against worker Bombus terrestris (bumblebee) assessed as reduction in reproduction at 0.8 mg a.i./l applied on the dorsal thorax for 11 weeks measured once a week for 11 weeks relative to control; format: functional, organism-based
Bombus terrestris [27] = experiment: Toxicity against worker Bombus terrestris (bumblebee) assessed as reduction in reproduction at 0.8 mg a.i./l, po administered through sugar water for 11 weeks measured once a week for 11 weeks relative to control; format: functional, organism-based
Bombus terrestris [28] = experiment: Toxicity against worker Bombus terrestris (bumblebee) assessed as mortality at 0.8 mg a.i./l, po administered through sugar water for 11 weeks measured everyday for 3 days followed by once a week for 11 weeks; format: functional
Bombus terrestris [29] = experiment: Toxicity against worker Bombus terrestris (bumblebee) assessed as mortality at 0.8 mg a.i./l, po administered through pollen for 11 weeks measured everyday for 3 days followed by once a week for 11 weeks; format: functional, organism-based
Bombus terrestris [30] = experiment: Toxicity against worker Bombus terrestris (bumblebee) assessed as reduction in reproduction at 0.8 mg a.i./l, po administered through pollen for 11 weeks measured once a week for 11 weeks; format: functional, organism-based
Bombus terrestris [31] = experiment: Toxicity against worker Bombus terrestris (bumblebee) assessed as reduction in reproduction at 10 mg a.i./l, po administered through sugar water for 11 weeks measured once a week for 11 weeks relative to control; format: functional, organism-based
Bombus terrestris [32] = experiment: Contact toxicity against worker Bombus terrestris (bumblebee) assessed as reduction in reproduction at 100 mg a.i./l applied on the dorsal thorax for 11 weeks measured once a week for 11 weeks relative to control; format: functional, organism-based
Bombus terrestris [33] = experiment: Contact toxicity against worker Bombus terrestris (bumblebee) assessed as mortality at 100 mg a.i./l applied on the dorsal thorax for 11 weeks measured everyday for 3 days followed by once a week for 11 weeks; format: functional
Bombus terrestris [34] = experiment: Toxicity against worker Bombus terrestris (bumblebee) assessed as mortality at 100 mg a.i./l, po administered through pollen for 11 weeks measured everyday for 3 days followed by once a week for 11 weeks; format: functional
Bombus terrestris [35] = experiment: Toxicity against worker Bombus terrestris (bumblebee) assessed as reduction in reproduction at 100 mg a.i./l, po administered through sugar water for 11 weeks measured once a week for 11 weeks relative to control; format: functional, organism-based
Bombus terrestris [36] = experiment: Toxicity against worker Bombus terrestris (bumblebee) assessed as reduction in reproduction at 100 mg a.i./l, po administered through pollen for 11 weeks measured once a week for 11 weeks; format: functional; design: scale not given: the % may be the effect or the level left
Bombus terrestris [37] = experiment: Toxicity against worker Bombus terrestris (bumblebee) assessed as mortality at 100 mg a.i./l, po administered through sugar water for 11 weeks measured everyday for 3 days followed by once a week for 11 weeks; format: functional
Bombus terrestris [38] = experiment: Toxicity against worker Bombus terrestris (bumblebee) assessed as reduction in reproduction at 200 mg a.i./l, po administered through sugar water for 11 weeks measured once a week for 11 weeks relative to control; format: functional, organism-based
Bombus terrestris [39] = experiment: Toxicity against worker Bombus terrestris (bumblebee) assessed as reduction in reproduction at 10 mg a.i./l, po administered through pollen for 11 weeks measured once a week for 11 weeks; format: functional; design: scale not given: the % may be the effect or the level left

CC(C)(C)c1ccc(CCOc2ncnc3ccccc23)cc1 [FENAZAQUIN]
mortality at 200 µg/mL (Bombus terrestris [1]): 25% | LD50 (Bombus terrestris [2]): >100 µg | mortality at 200 µg/mL (Bombus terrestris [3]): 90% | LD50 (Apis mellifera): <1 µg | Activity (Bombus terrestris [4]): inactive | mortality at 200 µg/mL (Bombus terrestris [5]): < 25% | Activity (Bombus terrestris [6]): 50%

C/C1=C\C[C@@H]2C[C@@H](C[C@]3(CC[C@H](C)[C@@H](C)O3)O2)OC(=O)[C@@H]2CC[C@@H](O)[C@H]3OC/C(=C\C=C\[C@H](C)C1)[C@]32O [MILBEMECTIN]
Activity (Bombus terrestris [7]): inactive | LD50 (Bombus terrestris [2]): >100 µg | Activity (Bombus terrestris [8]): inactive | LD50 (Apis mellifera): <1 µg | mortality at 10 µg/mL (Bombus terrestris [9]): < 25% | mortality at 10 µg/mL (Bombus terrestris [10]): < 25%

CC(C)(C)c1ccc(CSc2cnn(C(C)(C)C)c(=O)c2Cl)cc1 [PYRIDABEN]
Activity (Bombus terrestris [11]): inactive | Activity (Bombus terrestris [12]): Active | mortality at 75 µg/mL (Bombus terrestris [13]): 90% | Activity (Bombus terrestris [14]): Active | Activity (Bombus terrestris [15]): Active | mortality at 75 µg/mL (Bombus terrestris [16]): 95% | mortality at 75 µg/mL (Bombus terrestris [17]): 50% | Activity (Bombus terrestris [18]): Active

CCC(C)(C)C(=O)OC1=C(c2ccc(Cl)cc2Cl)C(=O)OC12CCCCC2 [SPIRODICLOFEN]
Activity (Bombus terrestris [19]): Active | mortality at 96 µg/mL (Bombus terrestris [20]): < 25% | Activity (Bombus terrestris [21]): inactive | Activity (Bombus terrestris [22]): Active | Activity (Bombus terrestris [23]): inactive | mortality at 96 µg/mL (Bombus terrestris [24]): < 25%

Cc1cc(C)c(C2=C(OC(=O)CC(C)(C)C)C3(CCCC3)OC2=O)c(C)c1 [SPIROMESIFEN]
mortality at 0.8 µg/mL (Bombus terrestris [25]): < 25% | Activity (Bombus terrestris [26]): inactive | Activity (Bombus terrestris [27]): Active | mortality at 0.8 µg/mL (Bombus terrestris [28]): < 25% | Activity (Bombus terrestris [29]): inactive | Activity (Bombus terrestris [30]): Active

CCc1nn(C)c(C(=O)NCc2ccc(C(C)(C)C)cc2)c1Cl [TEBUFENPYRAD]
Activity (Bombus terrestris [31]): Active | Activity (Bombus terrestris [32]): inactive | mortality at 100 µg/mL (Bombus terrestris [33]): < 25% | mortality at 200 µg/mL (Bombus terrestris [1]): 50% | Activity (Bombus terrestris [7]): inactive | mortality at 100 µg/mL (Bombus terrestris [34]): 90% | Activity (Bombus terrestris [35]): Active | Activity (Bombus terrestris [36]): 50% | mortality at 200 µg/mL (Bombus terrestris [3]): 90% | mortality at 100 µg/mL (Bombus terrestris [37]): 50% | Activity (Bombus terrestris [8]): inactive | mortality at 10 µg/mL (Bombus terrestris [9]): < 25% | Activity (Bombus terrestris [38]): Active | mortality at 10 µg/mL (Bombus terrestris [10]): 50% | Activity (Bombus terrestris [4]): inactive | Activity (Bombus terrestris [39]): 50% | mortality at 200 µg/mL (Bombus terrestris [5]): < 25% | Activity (Bombus terrestris [6]): 50%
